Source: ChEMBL document CHEMBL1201862, “PubChem BioAssay data set” (2004)
The source made the active and inactive calls.

Columns and labels:
[1] = microbe, parasite or virus in culture; assay type: functional; conditions: Mycobacterium tuberculosis
[2] = target: Neurotensin receptor type 1 (Homo sapiens, UniProt P30989); assay type: functional;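 further: Image-based confirmatory dose-response assay measuring agonist activity at NTR1; NTR1-expressing U2OS osteosarcoma cells imaged for beta-arrestin GFP spot formation; agonist potency where compounds increase beta-arrestin recruitment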
[3] = target: T1, High affinity choline transporter 1 (Homo sapiens, UniProt Q9GZV3); experiment: human choline transporter blockers, potency – cell-based, 5-point CRC, membrane potential dye, dose response (AID 504840); assay type: functional
T1 sequence (Q9GZV3 whole entry): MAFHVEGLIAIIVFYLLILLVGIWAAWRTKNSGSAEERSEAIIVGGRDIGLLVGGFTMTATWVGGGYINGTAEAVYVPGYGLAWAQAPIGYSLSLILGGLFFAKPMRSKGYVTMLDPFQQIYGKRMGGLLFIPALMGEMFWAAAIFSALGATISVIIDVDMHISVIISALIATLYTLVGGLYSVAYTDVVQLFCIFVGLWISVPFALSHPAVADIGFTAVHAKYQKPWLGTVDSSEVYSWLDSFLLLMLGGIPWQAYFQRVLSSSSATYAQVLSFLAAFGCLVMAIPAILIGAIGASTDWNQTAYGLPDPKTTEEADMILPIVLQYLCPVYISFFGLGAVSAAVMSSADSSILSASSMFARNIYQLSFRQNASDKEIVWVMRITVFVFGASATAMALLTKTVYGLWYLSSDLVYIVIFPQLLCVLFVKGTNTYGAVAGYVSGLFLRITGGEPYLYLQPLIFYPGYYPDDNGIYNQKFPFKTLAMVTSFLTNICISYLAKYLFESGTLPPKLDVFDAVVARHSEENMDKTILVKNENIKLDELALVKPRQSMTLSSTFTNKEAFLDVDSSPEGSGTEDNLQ

INS1 = experiment: INS-1E survival protection against cytokine death – cell-based, luminescence, retest, dose response (AID 449756); assay type: functional; conditions: Rattus norvegicus, INS1;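 further: cell death triggered by IL-1 beta plus TNF-alpha plus IFN-gamma mixture; protective hits raise ATP signal compared with cytokine alone wells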
[4] = protection from phage-mediated lysis, alamar blue read-out – E. coli UTI89, K1F phage, bacterial capsule biogenesis inhibitors (AID 488966); assay type: functional
[5] = target: Luciferin 4-monooxygenase (Photinus pyralis, UniProt P08659); experiment: inhibition of purified Photinus pyralis luciferase – biochemical, luminescence, dose response (AID 1891)
[6] = Luminescence Cell-Based Dose Confirmation HTS to Identify Inhibitors of Platelet Dense Granule Release. [Related pubchem assays: 1663 (Primary HTS), 1678 (Summary of Project)]; assay type: functional
[7] = target: Metabotropic glutamate receptor 4 (Homo sapiens, UniProt Q14833); experiment: Modulation of the Metabotropic Glutamate Receptor mGluR4: Potency at human mGluR4. Modulation of intracellular Ca2+ using Fluo-4, AM, in CHO expressing recombinant receptor [Related pubchem assays (depositor defined):AID2437, AID2807]; assay type: functional, cell-based
Chain of Metabotropic glutamate receptor 4 (Q14833 whole entry): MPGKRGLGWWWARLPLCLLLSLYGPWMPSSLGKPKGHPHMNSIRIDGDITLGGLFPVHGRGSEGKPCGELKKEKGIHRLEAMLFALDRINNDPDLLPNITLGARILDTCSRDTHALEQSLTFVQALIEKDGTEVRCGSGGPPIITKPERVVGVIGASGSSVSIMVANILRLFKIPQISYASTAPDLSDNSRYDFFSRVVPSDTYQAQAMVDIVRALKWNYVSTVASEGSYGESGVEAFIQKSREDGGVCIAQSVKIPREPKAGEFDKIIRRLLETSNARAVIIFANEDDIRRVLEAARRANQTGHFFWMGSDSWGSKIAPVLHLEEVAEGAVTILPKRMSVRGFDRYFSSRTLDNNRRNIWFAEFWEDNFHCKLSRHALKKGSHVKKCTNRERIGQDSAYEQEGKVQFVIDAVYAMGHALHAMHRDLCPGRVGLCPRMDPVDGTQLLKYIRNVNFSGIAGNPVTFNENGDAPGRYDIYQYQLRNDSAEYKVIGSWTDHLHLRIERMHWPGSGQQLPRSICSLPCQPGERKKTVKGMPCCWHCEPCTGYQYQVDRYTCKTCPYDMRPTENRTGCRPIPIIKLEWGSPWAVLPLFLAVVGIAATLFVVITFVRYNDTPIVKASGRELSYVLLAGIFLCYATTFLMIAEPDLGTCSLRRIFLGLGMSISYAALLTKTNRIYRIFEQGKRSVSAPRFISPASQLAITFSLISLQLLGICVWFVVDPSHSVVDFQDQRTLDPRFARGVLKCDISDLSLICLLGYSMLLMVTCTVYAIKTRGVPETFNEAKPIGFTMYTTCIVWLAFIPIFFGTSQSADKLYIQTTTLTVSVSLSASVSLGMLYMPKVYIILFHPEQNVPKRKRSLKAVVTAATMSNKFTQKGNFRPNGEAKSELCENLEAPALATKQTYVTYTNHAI

[8] = blockers of SFLLRN-triggered platelet ATP secretion – cell-based, human platelets, luminescence, dry powder, dose response (AID 493100); assay type: functional
MDA-MB-435 = experiment: cells; assay type: functional, cell-based; conditions: Homo sapiens
cells = assay type: functional, cell-based; conditions: PPC-1
Neutrophil collagenase = Neutrophil collagenase (Homo sapiens, UniProt P22894); experiment: potency against MMP13, MMP2, MMP3, MMP14 – biochemical, probe development, late stage results, selectivity assay for MMP13 inhibitor project, late-stage follow-up, panel member MMP-8 [IC50 Assay] (AID 2067)
Chain of Neutrophil collagenase (P22894 whole entry): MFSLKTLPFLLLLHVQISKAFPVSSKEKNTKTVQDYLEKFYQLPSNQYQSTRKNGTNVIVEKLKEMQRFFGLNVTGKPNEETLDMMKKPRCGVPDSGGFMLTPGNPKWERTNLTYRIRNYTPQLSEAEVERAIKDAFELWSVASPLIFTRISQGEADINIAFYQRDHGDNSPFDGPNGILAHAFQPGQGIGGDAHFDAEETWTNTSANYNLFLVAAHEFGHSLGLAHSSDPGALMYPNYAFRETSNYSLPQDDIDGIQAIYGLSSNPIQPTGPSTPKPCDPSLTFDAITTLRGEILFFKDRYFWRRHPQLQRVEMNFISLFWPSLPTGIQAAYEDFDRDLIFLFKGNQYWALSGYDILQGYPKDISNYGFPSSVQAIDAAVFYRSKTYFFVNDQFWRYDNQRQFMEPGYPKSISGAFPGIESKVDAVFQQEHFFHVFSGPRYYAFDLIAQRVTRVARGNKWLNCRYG

[9] = Cytotoxicity screening for potential Inhibitors of Bacterial Capsule Biogenesis. [Related pubchem assays (depositor defined):AID488970]; assay type: functional
[10] = target: Voltage-dependent T-type calcium channel subunit alpha-1H (Homo sapiens, UniProt O95180); experiment: human CACNA1H calcium influx blockade – cell-based, synthetic library set 1, calcium flux (AID 493022); assay type: functional
[11] = NIH-3T3 fibroblast cytotoxicity, dose response, cytotoxicity control, cell-based, fluorescence, Alamar Blue, secondary assay (AID 2327); assay type: functional;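 further: NIH-3T3 mouse fibroblasts cultured with fluconazole at 8 µg/mL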
HEK293 [12] = experiment: inhibition of NOD1-driven NF-kB reporter – cell-based, luminescence, uHTS, primary screen (AID 1578); assay type: functional; conditions: Homo sapiens
HEK293 [13] = experiment: cells; assay type: functional, cell-based; conditions: Homo sapiens
[14] = fluconazole-exposed Candida albicans growth modulators – fluorescence, retest, confirmation (AID 2467); assay type: functional, cell-based
HEK293 [15] = experiment: cells; assay type: functional, cell-based; conditions: Homo sapiens; remark: listed apart in the source
[16] = target: Nucleotide-binding oligomerization domain-containing protein 2 (Homo sapiens, UniProt Q9HC29); experiment: inhibition of NOD2-driven NF-kB reporter – cell-based, luminescence, uHTS, HEK293 (AID 1566); assay type: functional
Chain of Nucleotide-binding oligomerization domain-containing protein 2 (Q9HC29 whole entry, the tested form may be a part): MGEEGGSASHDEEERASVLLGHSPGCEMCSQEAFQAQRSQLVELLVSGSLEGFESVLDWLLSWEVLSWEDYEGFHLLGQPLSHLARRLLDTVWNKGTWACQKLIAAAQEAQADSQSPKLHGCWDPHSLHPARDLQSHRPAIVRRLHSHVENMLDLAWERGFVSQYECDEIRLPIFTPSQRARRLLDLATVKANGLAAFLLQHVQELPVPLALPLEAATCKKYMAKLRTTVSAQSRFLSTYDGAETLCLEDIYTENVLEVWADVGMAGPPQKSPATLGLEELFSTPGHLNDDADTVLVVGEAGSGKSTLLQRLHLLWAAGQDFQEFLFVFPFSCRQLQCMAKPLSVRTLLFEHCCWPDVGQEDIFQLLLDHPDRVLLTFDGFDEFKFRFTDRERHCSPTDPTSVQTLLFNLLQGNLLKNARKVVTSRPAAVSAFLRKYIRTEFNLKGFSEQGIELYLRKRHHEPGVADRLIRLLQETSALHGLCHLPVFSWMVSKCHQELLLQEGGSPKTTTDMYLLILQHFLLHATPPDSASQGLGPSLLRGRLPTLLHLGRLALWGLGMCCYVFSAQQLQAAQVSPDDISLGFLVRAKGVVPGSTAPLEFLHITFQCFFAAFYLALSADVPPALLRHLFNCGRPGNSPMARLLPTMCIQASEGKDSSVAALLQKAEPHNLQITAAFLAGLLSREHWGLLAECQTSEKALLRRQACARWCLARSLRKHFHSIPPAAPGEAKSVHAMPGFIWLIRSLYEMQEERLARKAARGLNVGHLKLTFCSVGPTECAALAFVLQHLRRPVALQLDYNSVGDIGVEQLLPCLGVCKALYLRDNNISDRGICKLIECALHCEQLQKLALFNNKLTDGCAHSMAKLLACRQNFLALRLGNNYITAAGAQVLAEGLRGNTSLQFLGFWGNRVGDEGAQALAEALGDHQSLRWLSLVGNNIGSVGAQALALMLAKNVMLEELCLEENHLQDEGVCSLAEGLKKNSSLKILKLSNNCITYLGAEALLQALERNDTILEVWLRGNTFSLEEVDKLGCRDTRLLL

HEK293 [17] = experiment: NOD2 signaling inhibitors in MDP-stimulated cells, cell-based, uHTS, luminescence (AID 2001); assay type: functional; conditions: Homo sapiens
HEK293 [18] = experiment: cells; assay type: functional, cell-based; conditions: Homo sapiens; remark: listed apart in the source
[19] = HEK-293T cell viability reduction – luminescence, B-cell screen hits, cytotoxicity control for BCR NF-kB inhibitor project, dose response (AID 489021); assay type: functional, cell-based;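 further: HEK-293T cells carrying an NF-kB luciferase reporter; cells exposed to compound for about 14 hours before viability readout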
[20] = target: Envelope glycoprotein gp160 (Human immunodeficiency virus 1, UniProt Q6QLK5); experiment: cell-free HIV fusion peptide-binding blockers – biochemical, uHTS, fluorescence dequenching, […] (AID 1986)
SUMO-activating enzyme [21] = target: T2, SUMO-activating enzyme (Homo sapiens, UniProt Q9UBT2); experiment: blockers of UBC9-mediated SUMO conjugation – biochemical, AlphaScreen, SUMOylation inhibitor project, confirmation (AID 2018); assay type: functional
T2 sequence (Q9UBE0 whole entry): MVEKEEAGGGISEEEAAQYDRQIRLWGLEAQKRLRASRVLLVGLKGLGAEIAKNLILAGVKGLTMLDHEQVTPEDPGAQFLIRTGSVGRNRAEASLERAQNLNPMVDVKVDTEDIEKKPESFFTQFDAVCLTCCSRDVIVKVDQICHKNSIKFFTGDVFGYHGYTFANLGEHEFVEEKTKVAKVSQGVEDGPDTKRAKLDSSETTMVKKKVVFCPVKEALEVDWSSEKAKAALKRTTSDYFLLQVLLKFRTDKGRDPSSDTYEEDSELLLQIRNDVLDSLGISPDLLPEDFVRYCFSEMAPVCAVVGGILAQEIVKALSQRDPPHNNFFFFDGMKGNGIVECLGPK
T2 sequence (Q9UBT2 whole entry): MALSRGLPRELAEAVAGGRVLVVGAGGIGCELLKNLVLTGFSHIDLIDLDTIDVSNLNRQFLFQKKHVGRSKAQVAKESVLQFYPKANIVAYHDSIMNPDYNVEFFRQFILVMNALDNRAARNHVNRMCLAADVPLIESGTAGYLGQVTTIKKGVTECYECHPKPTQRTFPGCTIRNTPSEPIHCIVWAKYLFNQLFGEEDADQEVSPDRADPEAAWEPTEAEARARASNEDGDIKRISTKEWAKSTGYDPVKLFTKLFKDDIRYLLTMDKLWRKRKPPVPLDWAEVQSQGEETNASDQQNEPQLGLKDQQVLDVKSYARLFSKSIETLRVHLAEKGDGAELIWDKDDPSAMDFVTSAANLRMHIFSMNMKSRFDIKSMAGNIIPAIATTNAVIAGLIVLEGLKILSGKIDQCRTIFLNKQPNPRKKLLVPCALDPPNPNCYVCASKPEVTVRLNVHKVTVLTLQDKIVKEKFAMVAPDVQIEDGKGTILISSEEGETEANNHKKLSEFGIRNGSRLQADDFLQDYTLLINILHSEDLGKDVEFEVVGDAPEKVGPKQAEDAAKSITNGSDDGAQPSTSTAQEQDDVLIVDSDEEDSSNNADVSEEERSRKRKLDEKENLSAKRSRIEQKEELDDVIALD

SUMO-activating enzyme [22] = target: T2, SUMO-activating enzyme; experiment: blockers of SAE1/SAE2–UBC9 SUMO transfer – biochemical, HTRF, uHTS, primary screen (AID 2006); assay type: protein-complex assay
[23] = target: T3, Replicative DNA helicase DnaB (Mycobacterium tuberculosis, UniProt P9WMR3); experiment: DnaB intein splicing inhibitors, dose response, biochemical, cell-free fluorescence (AID 449749); assay type: functional
T3 sequence (P9WMR3 whole entry): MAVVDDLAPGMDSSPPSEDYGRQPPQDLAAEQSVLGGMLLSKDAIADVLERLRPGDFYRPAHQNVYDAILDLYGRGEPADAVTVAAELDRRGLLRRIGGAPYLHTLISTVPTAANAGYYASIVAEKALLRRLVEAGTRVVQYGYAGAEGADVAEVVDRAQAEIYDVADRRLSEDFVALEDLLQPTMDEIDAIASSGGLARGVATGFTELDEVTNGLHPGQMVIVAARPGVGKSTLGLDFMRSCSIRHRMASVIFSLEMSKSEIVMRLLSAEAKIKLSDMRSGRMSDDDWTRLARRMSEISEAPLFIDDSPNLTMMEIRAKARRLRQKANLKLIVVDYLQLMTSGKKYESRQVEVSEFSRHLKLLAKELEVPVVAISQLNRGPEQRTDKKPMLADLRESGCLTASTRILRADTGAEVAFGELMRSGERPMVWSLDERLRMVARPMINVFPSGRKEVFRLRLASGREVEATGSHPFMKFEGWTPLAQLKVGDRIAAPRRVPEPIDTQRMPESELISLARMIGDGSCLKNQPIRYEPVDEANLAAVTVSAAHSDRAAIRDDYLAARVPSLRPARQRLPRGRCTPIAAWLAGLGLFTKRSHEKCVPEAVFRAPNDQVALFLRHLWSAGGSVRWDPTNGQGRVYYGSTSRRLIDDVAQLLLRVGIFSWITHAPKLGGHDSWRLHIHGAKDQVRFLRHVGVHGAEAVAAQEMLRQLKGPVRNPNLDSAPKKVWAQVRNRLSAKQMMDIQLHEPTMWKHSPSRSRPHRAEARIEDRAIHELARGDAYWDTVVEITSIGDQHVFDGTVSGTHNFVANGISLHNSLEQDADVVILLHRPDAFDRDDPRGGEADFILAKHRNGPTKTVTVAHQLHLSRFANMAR

Protein RecA = target: T4, Protein RecA (Mycobacterium tuberculosis, UniProt P9WHJ3); experiment: Fluorescence Cell-Free Homogeneous Dose Retest to Identify Inhibitors of RecA-Intein Splicing Activity. [Related pubchem assays (depositor defined):AID2097, AID2223, AID489010, AID492950]; assay type: functional
T4 sequence (P9WHJ3 whole entry): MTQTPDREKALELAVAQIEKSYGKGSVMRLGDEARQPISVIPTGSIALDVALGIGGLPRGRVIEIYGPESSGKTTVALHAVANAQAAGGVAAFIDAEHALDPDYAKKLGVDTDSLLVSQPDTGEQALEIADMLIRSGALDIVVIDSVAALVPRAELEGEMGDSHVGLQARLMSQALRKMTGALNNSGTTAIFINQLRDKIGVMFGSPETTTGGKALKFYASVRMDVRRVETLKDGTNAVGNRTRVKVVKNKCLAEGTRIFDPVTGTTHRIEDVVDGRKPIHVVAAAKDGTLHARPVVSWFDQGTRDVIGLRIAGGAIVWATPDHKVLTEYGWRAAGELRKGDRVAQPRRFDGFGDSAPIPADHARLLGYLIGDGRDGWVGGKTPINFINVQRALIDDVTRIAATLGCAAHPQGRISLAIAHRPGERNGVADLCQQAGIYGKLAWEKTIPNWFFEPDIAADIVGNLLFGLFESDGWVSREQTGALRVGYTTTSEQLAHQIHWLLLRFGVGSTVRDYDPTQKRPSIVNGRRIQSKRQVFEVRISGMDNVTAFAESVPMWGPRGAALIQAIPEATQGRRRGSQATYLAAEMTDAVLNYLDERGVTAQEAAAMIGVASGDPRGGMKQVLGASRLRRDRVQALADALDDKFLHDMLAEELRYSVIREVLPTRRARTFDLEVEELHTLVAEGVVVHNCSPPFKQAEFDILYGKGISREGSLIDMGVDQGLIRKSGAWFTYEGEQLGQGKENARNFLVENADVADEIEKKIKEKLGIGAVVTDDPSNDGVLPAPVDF

Genome polyprotein = Genome polyprotein (dengue virus type 2, UniProt P29990); experiment: flavivirus cap methylation enzyme inhibition – biochemical, confirmation dose response, primary screen (AID 588689); assay type: functional
Cytochrome P450 3A4 = Cytochrome P450 3A4 (Homo sapiens, UniProt P08684); conditions: Potency;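 further: confirmatory qHTS run detecting inhibitors and substrates of CYP3A4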
[24] = target: DNA damage-inducible transcript 3 protein (Mus musculus, UniProt P35639); assay type: functional, Cricetulus griseus
Chain of DNA damage-inducible transcript 3 protein (P35639 whole entry): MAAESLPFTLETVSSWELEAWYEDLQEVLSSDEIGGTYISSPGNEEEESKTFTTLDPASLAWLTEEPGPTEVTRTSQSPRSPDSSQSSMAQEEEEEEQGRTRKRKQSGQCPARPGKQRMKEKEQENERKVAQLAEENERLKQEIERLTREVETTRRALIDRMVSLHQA

X-box-binding protein 1 = X-box-binding protein 1 (Homo sapiens, UniProt P17861); assay type: functional, Cricetulus griseus;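 further: confirmatory dose-response counter-screen serving a CHOP assay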
Chain of X-box-binding protein 1 (P17861 whole entry, the tested form may be a part): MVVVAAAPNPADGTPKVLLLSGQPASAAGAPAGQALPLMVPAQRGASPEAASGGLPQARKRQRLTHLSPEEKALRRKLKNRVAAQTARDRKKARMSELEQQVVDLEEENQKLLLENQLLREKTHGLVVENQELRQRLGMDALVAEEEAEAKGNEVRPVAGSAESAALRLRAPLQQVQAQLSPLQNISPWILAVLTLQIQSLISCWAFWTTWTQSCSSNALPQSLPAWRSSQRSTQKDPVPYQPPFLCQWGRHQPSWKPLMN

[25] = target: NACHT, LRR and PYD domains-containing protein 3 (Homo sapiens, UniProt Q96P20); experiment: NALP3 inhibitors in yeast, dose response, luminescent (AID 488799); assay type: functional
Chain of NACHT, LRR and PYD domains-containing protein 3 (Q96P20 whole entry, the tested form may be a part): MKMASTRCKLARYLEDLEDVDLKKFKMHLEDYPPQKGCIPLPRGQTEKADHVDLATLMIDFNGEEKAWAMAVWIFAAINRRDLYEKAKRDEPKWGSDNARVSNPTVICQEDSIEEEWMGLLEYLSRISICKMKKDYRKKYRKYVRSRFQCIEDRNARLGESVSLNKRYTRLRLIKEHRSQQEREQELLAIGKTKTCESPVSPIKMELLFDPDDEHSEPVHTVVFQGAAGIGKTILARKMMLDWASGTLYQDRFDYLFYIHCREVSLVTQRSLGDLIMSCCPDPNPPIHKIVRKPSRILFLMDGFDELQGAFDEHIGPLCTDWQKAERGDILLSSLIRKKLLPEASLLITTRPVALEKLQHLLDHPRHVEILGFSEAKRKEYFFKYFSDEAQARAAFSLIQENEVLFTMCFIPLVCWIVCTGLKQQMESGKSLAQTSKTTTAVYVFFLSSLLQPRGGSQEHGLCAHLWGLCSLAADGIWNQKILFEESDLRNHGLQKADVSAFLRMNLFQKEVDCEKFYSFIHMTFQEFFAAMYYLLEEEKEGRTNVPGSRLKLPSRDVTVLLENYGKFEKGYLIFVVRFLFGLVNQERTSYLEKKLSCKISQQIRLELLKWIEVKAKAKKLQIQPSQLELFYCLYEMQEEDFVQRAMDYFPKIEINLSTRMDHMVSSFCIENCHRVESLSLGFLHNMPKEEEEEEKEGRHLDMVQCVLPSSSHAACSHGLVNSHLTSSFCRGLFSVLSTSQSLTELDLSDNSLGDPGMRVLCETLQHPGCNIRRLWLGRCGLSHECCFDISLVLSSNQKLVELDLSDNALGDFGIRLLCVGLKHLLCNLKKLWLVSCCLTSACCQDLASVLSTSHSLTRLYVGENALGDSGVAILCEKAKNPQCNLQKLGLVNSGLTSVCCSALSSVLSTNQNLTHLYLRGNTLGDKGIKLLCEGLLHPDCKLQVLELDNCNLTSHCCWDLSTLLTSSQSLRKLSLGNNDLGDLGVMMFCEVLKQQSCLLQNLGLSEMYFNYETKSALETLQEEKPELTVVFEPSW

For `COc1ccc(C(CCN2CCCCC2)c2c(OC)cc(OC)c3c(-c4ccccc4)cc(=O)oc23)cc1` (stereo not given), the CC50 [1] was 20.5 µM (active), the EC50 [2] was 14.7 µM (active) and the IC50 [3] was 12.6 µM (active). The AC50 (INS1) was 10.7 µM (active).

In the case of `O=C(Nc1ccc(N2CCOCC2)cc1)c1ccc2ncsc2c1`, the IC50 [4] is reported as > 150 µM (active).

With `COc1ccc(NC(=O)c2ccccn2)cc1OC` the EC50 [5] was > 112 µM (not active), the EC50 [6] was 42.7 µM (active) and the EC50 [7] was 3.65 µM (active).

With `CCCC(=O)Nc1cccc(NC(=O)c2ccccc2F)c1` the AC50 [8] was 31.5 µM (active).

In the case of `CSc1nc(-c2ccccc2)nc(C(C)C)n1`, the IC50 (MDA-MB-435) is reported as > 10 µM (inactive) and the IC50 (cells) is reported as > 10 µM (inactive).

With `Cc1ccc(CSc2nc3c(c(=O)[nH]2)CCC3)cc1` the IC50 (Neutrophil collagenase) was > 39.8 µM (inactive).

With `Cc1ccc(C2c3c(oc4cc(C)c(C)cc4c3=O)C(=O)N2CCCN2CCOCC2)cc1` (stereo not given) the CC50 [9] was 44.4 µM (active).

For `O=C(COc1ccc(F)cc1)Nc1nnc(-c2ccc3c(c2)OCO3)o1`, the EC50 [10] was 10 µM (active).

For `COc1ccc(-c2n(Cc3ccccc3)c3ccccc3[n+]2Cc2ccccc2)cc1`, the EC50 [11] was > 150 µM (inactive), the EC50 (HEK293 [12]) was 4.23 µM (active) and the IC50 (HEK293 [13]) was 1.21 µM (active). For the same compound, the EC50 [14] was > 38 µM (not active), the IC50 (HEK293 [15]) was 11.7 µM (active) and the EC50 [16] was 9.35 µM (active). For the same compound, the IC50 (HEK293 [17]) was 3.69 µM (active), the IC50 (HEK293 [18]) was > 20 µM (inactive) and the IC50 [19] was > 80 µM (inactive). The AC50 (INS1) was 3.85 µM (active).

For `CCCCCc1c2c(cc(O)c1C(=O)O)OC(=O)c1c(cc(OC)cc1C(=O)CCCC)O2` [LOBARIC ACID], the IC50 [20] was 13.1 µM (active), the IC50 (SUMO-activating enzyme [21]) was 6.52 µM (active) and the IC50 (SUMO-activating enzyme [22]) was 15.3 µM (active). The AC50 [23] was 6.47 µM (active), the IC50 [3] was 11 µM (active) and the EC50 (Protein RecA) was 4.98 µM (active). The IC50 (Genome polyprotein) was 32.2 µM (active) and the AC50 (Cytochrome P450 3A4) was 25.1 µM (inconclusive).

With `O=C(Nc1cccc(C(F)(F)F)c1)NC1CCN(S(=O)(=O)c2ccc(F)cc2)CC1` the “Absolute IC50 (CHOP)” value [24] was 10 µM and the “Absolute IC50 (XBP1)” value (X-box-binding protein 1) was 10 µM.

In the case of `Cc1onc(-c2ccccc2Cl)c1C(=O)N1C=CC(C(F)(F)F)=NCC1`, the IC50 [25] is reported as 8.66 µM (active).
